Patent US10167296B2, “Sulfoximine substituted quinazolines for pharmaceutical compositions” (EVOTEC INTERNATIONAL GMBH, priority 2014, dated 2019)

Key:
[1] = test system: MNK2 (MNK2a or MNK2b) or MNK1; settings: cell culture cells transfected with MNK2 (MNK2a or MNK2b) or MNK1; cited from earlier work
[2] = target: MNK2a (pre-activated GST-MNK2a) (Homo sapiens (Human), UniProt Q9HBH9); assay: MNK2a in vitro kinase assay (assay 1), ADP-Glo; type: biochemical; settings: read-out: Mnk2 IC50
Protocol: A. MNK2a In Vitro Kinase Assay (Assay 1)
The inhibition of kinase activity of MNK2a was assessed using pre-activated GST-MNK2a. The white, 384-well OptiPlate F plates were purchased from PerkinElmer. The ADP-Glo Kinase Assay (including ultra pure ATP) was purchased from Promega (V9103). Activated MNK2a was obtained as described in WO2011/104340. […] ID No. 5 of WO 2011/104340 by the C-terminal —CONH2 group, was purchased from Thermo Fisher Scientific. All other materials were of highest grade commercially available. Compounds are tested in either serial dilutions or single dose concentrations. The compound stock solutions are 10 mM in 100% DMSO The serial compound dilutions are prepared in 100% DMSO followed by 1:27.3 intermediate dilution in assay buffer. The final DMSO concentration in assay will be <3%.
In the 384-well plates 3 μl of test compound from the intermediate dilution is mixed with 4 μl of the activated MNK2 enzyme (final concentration of 10 nM) and 4 μl of the peptide (final concentration of 25 μM)/ultra pure ATP (final concentration of 20 μM), all dissolved in assay buffer. This step is followed by an incubation time of 90 min, then 10 μl of ADP Glo reagent are added, followed by 40 min of incubation. Then 20 μl of kinase detection reagent are admixed. The plates are sealed and after an incubation period of 30 min, the luminescence signal is measured in an Envision reader to determine the amount of produced ADP. All incubation steps are performed at room temperature.
The assay buffer consists of 20 mM HEPES, 2 mM DTT, 0.01% BSA, 20 mM MgCl2 and 0.1% Pluronic F-127.
The luminescent signal generated is proportional to the ADP concentration produced and is correlated with activated MNK2 activity. The analysis of the data is performed by the calculation of the percentage of ATP consumption of activated MNK2 in the presence of the test compound compared to the consumption of ATP in the presence of activated MNK2 without compound. (RLU(sample)−RLU(low control))*100/(RLU(high value)−RLU(low control))
[RLU=Relative Luminescence Units]
Values of more than 100% CTL are normally related to compound/sample specific physico-chemical properties (e.g. solubility, light absorbance, fluorescence).
IC50 values based on dose response curves are calculated with the AssayExplorer software.

[3] = target: MNK1a (pre-activated GST-MNK1a) (Homo sapiens (Human), UniProt Q9BUB5); assay: MNK1 in vitro kinase assay (assay 2), Z'-LYTE; type: biochemical; settings: for inhibition at 1 µM: compound concentration of 1 μM, read-out: Mnk1 % Inh
Description: B. MNK1 In Vitro Kinase Assay (Assay 2)
MNK1 Data can be obtained from the MNK1 Z′-LYTE® assay. The MNK1 Z′-LYTE® screening protocol and assay conditions are also described on www.invitrogen.com.
The assay is described as follows:
The Z′-LYTE® biochemical assay employs a fluorescence-based, coupled-enzyme format and is based on the differential sensitivity of phosphorylated and non-phosphorylated peptides to proteolytic cleavage. The peptide substrate is labeled with two fluorophores—one at each end—that make up a FRET pair.
In the primary reaction, the kinase transfers the gamma-phosphate of ATP to a single tyrosine, serine or threonine residue in a synthetic FRET-peptide. In the secondary reaction, a site-specific protease recognizes and cleaves non-phosphorylated FRET-peptides. Phosphorylation of FRET-peptides suppresses cleavage by the Development Reagent. Cleavage disrupts FRET between the donor (i.e., coumarin) and acceptor (i.e., fluorescein) fluorophores on the FRET-peptide, whereas uncleaved, phosphorylated FRET-peptides maintain FRET. A ratiometric method, which calculates the ratio (the Emission Ratio) of donor emission to acceptor emission after excitation of the donor fluorophore at 400 nm, is used to quantitate reaction progress, as shown in the equation below. Emission Ratio=Coumarin Emission(445 nm)/Fluorescein Emission(520 nm)
The inhibition of kinase activity of MNK1a was assessed using pre-activated GST-MNK1a. The 2×MKNK1 (MNK1) mixture is prepared in 50 mM HEPES pH 7.5, 0.01% BRIJ-35, 10 mM MgCl2, 4 mM MnCl2, 1 mM EGTA, 2 mM DTT. The final 10 μL Kinase Reaction consists of 13.5-54 ng MKNK1 (MNK1) and 2 μM Ser/Thr 07 in 50 mM HEPES pH 7.5, 0.01% BRIJ-35, 10 mM MgCl2, 2 mM MnCl2, 1 mM EGTA, 1 mM DTT. After the 1 hour Kinase Reaction incubation, 5 μL of a 1:32768 dilution of Development Reagent A is added.
The Test Compounds are screened in 1% DMSO (final) in the well.
All Peptide/Kinase Mixtures are diluted to a 2×working concentration in the MNK1 Kinase Buffer.
All ATP Solutions are diluted to a 4×working concentration in Kinase Buffer (50 mM HEPES pH 7.5, 0.01% BRIJ-35, 10 mM MgCl2, 1 mM EGTA).
Development Reagent Solution:
The Development Reagent is diluted in Development Buffer
Bar-coded Corning, low volume NBS, 384-well plate (Corning Cat. #3676)
1. 2.5 μL—4×Test Compound
2. 5 μL—2×Peptide/Kinase Mixture
5. 60-minute Kinase Reaction incubation at room temperature
6. 5 μL—Development Reagent Solution
8. 60-minute Development Reaction incubation at room temperature
9. Read on fluorescence plate reader and analyze the data
The following equations are used for each set of data points:
Correction for Background Fluorescence: FISample−FITCFI Ctl Emission Ratio (using values corrected for background fluorescence):Coumarin Emission (445 nm)/Fluorescein Emission (520 nm)
% Phosphorylation (% Phos): 1−((Emission Ratio×F100%)−C100%)/((C0%−C100%)+[Emission Ratio×(F100%−F0%)])*100
% Inhibition: 1−(% PhosSample/% Phos0% Inhibition Ctl)*100 FI=Fluorescence Intensity C100%=Average Coumarin emission signal of the 100% Phos. Control C0%=Average Coumarin emission signal of the 0% Phos. Control F100%=Average Fluorescein emission signal of the 100% Phos. Control F0%=Average Fluorescein emission signal of the 0% Phos. Control
SelectScreen® Kinase Profiling Service uses XLfit from IDBS. The dose response curve is curve fit to model number 205 (sigmoidal dose-response model).

MNK1a (pre-activated GST-MNK1a), sequence (Q9BUB5 other isoform, or with tags, fused parts or gaps): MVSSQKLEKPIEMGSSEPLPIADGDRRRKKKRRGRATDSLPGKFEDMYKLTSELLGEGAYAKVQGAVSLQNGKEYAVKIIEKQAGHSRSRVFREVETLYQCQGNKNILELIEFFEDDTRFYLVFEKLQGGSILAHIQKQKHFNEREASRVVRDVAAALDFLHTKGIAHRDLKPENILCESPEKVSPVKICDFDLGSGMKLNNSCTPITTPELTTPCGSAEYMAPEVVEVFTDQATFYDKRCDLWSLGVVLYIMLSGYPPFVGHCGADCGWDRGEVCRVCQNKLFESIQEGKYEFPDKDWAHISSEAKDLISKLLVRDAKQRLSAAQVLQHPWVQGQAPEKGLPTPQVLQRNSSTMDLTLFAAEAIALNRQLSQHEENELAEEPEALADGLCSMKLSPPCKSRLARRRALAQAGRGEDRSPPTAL
MNK2a (pre-activated GST-MNK2a), sequence (Q9HBH9 whole entry): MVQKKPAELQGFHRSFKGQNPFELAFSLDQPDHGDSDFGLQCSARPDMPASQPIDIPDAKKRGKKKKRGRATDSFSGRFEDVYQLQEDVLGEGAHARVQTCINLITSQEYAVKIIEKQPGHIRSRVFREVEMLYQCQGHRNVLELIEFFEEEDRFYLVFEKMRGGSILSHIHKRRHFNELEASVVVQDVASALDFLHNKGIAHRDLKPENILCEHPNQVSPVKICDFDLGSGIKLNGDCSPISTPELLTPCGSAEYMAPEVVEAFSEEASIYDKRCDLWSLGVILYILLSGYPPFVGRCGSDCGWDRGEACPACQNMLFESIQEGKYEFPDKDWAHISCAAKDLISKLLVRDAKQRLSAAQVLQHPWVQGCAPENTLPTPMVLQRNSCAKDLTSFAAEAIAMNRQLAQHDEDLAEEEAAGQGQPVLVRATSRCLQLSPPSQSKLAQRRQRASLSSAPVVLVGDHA

Row | IC50 [2] | inhibition at 1 µM [3] | IC50 [3] | SMILES | reduction of phosphorylated elF4E [1]
1 |  |  |  | Nc1ncnc2n[nH]c(Nc3ccc(F)cc3)c12 [CGP57380] | strong reduction
2 | 1.6 nM | 106% |  | COc1c(N=S2(=O)CCC2)cc2ncnc(Nc3ccc(F)cc3O[C@@H]3CO[C@H]4[C@@H]3OC[C@H]4OC)c2c1C [Example 2.41] | 
3 | 3.5 nM | 102% |  | COc1c(N=S(C)(C)=O)cc2ncnc(Nc3ccc(F)cc3O[C@H](C)C(F)(F)F)c2c1C [Example 2.16] | 
4 | 1.3 nM |  | 16 nM | COc1c(N=S(C)(C)=O)cc2ncnc(Nc3ccc(F)cc3O[C@@H]3CO[C@@H]4CCO[C@@H]43)c2c1Cl [Example 2.40] | 
